# Measurements from patent US7714014B2, “Targeting GLI proteins in human cancer by small molecules” (The Regents of the University of California, priority 2005, dated 2010).
# “Also recorded” adds a separate entry of the source.
# What was measured:
# SW480 (colon cancer) = test: Apoptosis analysis (Annexin V FITC, flow cytometry); assay type: cell-based, human; conditions: 3 days
# Description: Apoptosis was analyzed by using an Annexin V FITC Apoptosis Detection Kit (Biosource, Camarillo, Calif.), according to the manufacturer's protocol. After treatment with different small molecule compounds at various concentrations for about 3 days, cells were harvested by trypsinization, stained and immediately analyzed by flow cytometry (FACScan; Decton Dickinson, Franklin Lake, N.J.). Early apoptotic cells with exposed phosphatidylserine but intact cell membranes will bind to Annexin V-FITC, but not propidium iodide (PI). Cells in necrotic or late apoptotic stages will be labeled with both Annexin V-FITC and PI. “% apoptotic cells” or “% apoptosis” refers to the combined early and late apoptotic cells.
# Flow cytometry was used to examine apoptosis in colon cancer cells after treatment of cells with small molecule compounds of the invention.
# [1] = tested on: NSCLC cells A549, H358, and H322; test: MTS cell proliferation assay; assay type: cell-based, human; conditions: 7.5 μM or 15 μM; dose-dependent, already after 1 day
# From the text: (§1) Another assay for determining the number of viable cells in proliferation or cytotoxicity assays is the MTS assay, a calorimetric method. MTS assay reagents are commercially available (Promega Corp., Madison, Wis.). The reagent contains a tetrazolium compound [3-(4,5-dimethylthiazol-2-yl)-5-(3-carboxymethoxyphenyl)-2-(4-sulfophenyl)-2H-tetrazolium, inner salt; MTS] and an electron coupling reagent (phenazine ethosulfate; PES). PES has enhanced chemical stability, which allows it to be combined with MTS to form a stable solution. The MTS tetrazolium compound (Owen.s reagent) is bioreduced by cells into a colored formazan product that is soluble in tissue culture medium. This conversion may be accomplished by NADPH or NADH produced by dehydrogenase enzymes in metabolically active cells. The quantity of formazan product as measured by the absorbance at 490 nm is directly proportional to the number of living cells in culture. Because the MTS formazan product is soluble in tissue culture medium, this assay requires fewer steps than procedures that use tetrazolium compounds such as MTT. The formazan product of MTT reduction is a crystalline precipitate that requires an additional step in the procedure to dissolve the crystals before recording absorbance readings at 570 nm. […]
# [2] = tested on: melanoma cells Malme-3M, A375, G361, SK-Mel-2, SK-Mel-5, and SK-Mel-28; test: MTS cell proliferation assay; assay type: cell-based, human; conditions: 5 μM or 10 μM
# From the text: as §1
# [3] = tested on: melanoma cell lines Malme-3M, A375, G361, SK-Mel-2, SK-Mel-5, and SK-Mel-28; test: Time course of cell survival (flow cytometry); assay type: cell-based, human
# Description: The time course of cell survival in melanoma cell lines (Malme-3M, A375, G361, SK-Mel-2, SK-Mel-5, and SK-Mel-28) after administration of small molecule compound FN1-8 was analyzed. These melanoma cells were incubated with 10 μM or 20 μM FN1-8. Then flow cytometry was used to examine the percentage of living and dead cells at different time points. […] (FIGS. 18A, B, and C, and data not shown).
# [4] = tested on: human normal skin fibroblast cells (Malme-3); test: Time course of cell survival (flow cytometry); assay type: cell-based; conditions: 10 μM or 20 μM, after 6 days
# Description: To investigate whether small molecule compounds of the present invention, e.g., FN1-8, specifically kill cancer cells, time course experiments of cell survival after administration of 10 μM and 20 μM of FN1-8 were also conducted using human normal skin fibroblast cells (Malme-3).
# Melanoma LOX tumor = test: Mouse Xenograft Model (Melanoma LOX); assay type: in vivo; conditions: 50 mg/kg i.p. daily for 2×6 days
# Description: The small molecule compound FN1-8 was tested in vivo in the mouse xenograft model bearing human cancer cells. Briefly, female athymic nude mice strain NCRNU-M (5-10 weeks old, 20-25 grams in weight; Taconic, Germantown, N.Y.) was maintained in pathogen-free conditions. Three human cancer cell lines: NSCLC H460, melanoma LOX, (both showing Gli3 activation), and colon cancer HT29 (no Gli3 activation, as a negative control), were used. Ten mice were used in each group and injected s.c. with 3×10^6 cancer cells in the dorsal area in a volume of 100 μl. After inoculation, human cancer cells were allowed to grow in mice for 7 days to become visible tumor nodules. Animals were then injected with small molecule compound FN1-8 at a dose of 50 mg/kg body weight (1 mg/mouse per day). DMSO alone was used as control. […] Tumor size was measured every three days, and tumor volumes were calculated using width (x) and length (y) (x^2y/2, where x<y). […]
# In vivo efficacy study of small molecule compound FN1-8 were performed using a Mouse Xenograft Model (Melanoma Lox). […] Tumor size and tumor volumes were calculated as described above.
# Three weeks after the initial tumor inoculation and the treatment as described above, tumors were dissected from the mice of each group and their weights were measured using a scale.
# [5] = tested on: Dvl-3 and cytosolic beta-catenin in H460 tumor; test: Western blot of cytosolic proteins from xenograft tumors; assay type: in vivo, mouse
# Description: (§2) To examine whether the lead compound FN1-8 suppressed tumor growth through inhibition of the Wnt signaling pathway in vivo, Western blot analysis of cytosolic proteins isolated from the H460 and HT29 xenograft tumors was performed. GAPDH served as a control. This Western Blot analysis was performed using a “pooled” tumor from two randomly selected mice of each group with reasonable size tumors.
# [6] = tested on: Dvl-3 and cytosolic β-catenin in HT29 tumor; test: as above; assay type: in vivo, mouse; conditions: HT29 xenograft tumor (negative control)
# Description: as §2
Compound,"% of apoptotic cells (SW480 (colon cancer); SW480, 10 μM) [%]","% of apoptotic cells (SW480 (colon cancer); SW480, 100 μM) [%]",cell proliferation (MTS) [1],cell proliferation (MTS) [2],"time after which cell killing effect was apparent ([3]; 20 μM, all tested melanoma cells) [days]","apoptosis in time course experiment ([3]; Malme-3M, A375, SK-Mel-5 (FIG. 14))",cell killing in normal cells [4],tumor growth (Melanoma LOX tumor),tumor weight (Melanoma LOX tumor; three weeks after inoculation),Dvl-3 and cytosolic beta-catenin expression in tumor [5],Dvl-3 and cytosolic β-catenin levels in tumor [6]
"O=C(NCCCCCO)C1C(c2ccccc2)=NN(c2ccccc2)C1c1ccccc1 (centres unmarked) [FN1-5, N-(5-Hydroxypentyl)-1,3,5-triphenyl-4,5-dihydro-pyrazole-4-carboxyamide]",10.8,58.6,,,,,,,,,
"O=C(NCCc1ccc(O)cc1)C1C(c2ccccc2)=NN(c2ccccc2)C1c1ccccc1 (centres unmarked) [FN1-8, N-(2-(4-Hydroxyphenyl)ethyl)-1,3,5-triphenyl-4,5-dihydro-pyrazole-4-carboxyamide]",,,significantly inhibited cell proliferation,significantly inhibited cell proliferation,2,induces significant apoptosis,no cell killing,dramatically suppressed; also recorded: significantly suppressed,dramatically decreased,down-regulated,no noticeable changes
